Test results taken from PMC6131563, “Talaropeptides A-D: Structure and Biosynthesis of Extensively N-methylated Linear Peptides From an Australian Marine Tunicate-Derived Talaromyces sp” (Frontiers in Chemistry, 2018).
Read-outs that look alike come from different tables or passages of the source. Blank lines part the entries; values can stand above or below the compound they belong to. Where a SMILES comes first, the peptide text is derived from it. [ ]: non-standard residue; d: D form. NMeF = CN[C@@H](Cc1ccccc1)C(=O)O; NMeI = CC[C@H](C)[C@H](NC)C(=O)O; NMeV = CN[C@H](C(=O)O)C(C)C; NMeA = CN[C@@H](C)C(=O)O

Legend:
NCI-H460 = experiment: cells; set-up: MTT assay of cancer cell growth inhibition, absorbance at 580 nm; conditions: Homo sapiens, NCI-H460, 48 h
Experimental: (§1) Adherent cell SW620 (human colorectal carcinoma) and NCI-H460 (human lung carcinoma) cells were cultured in Roswell Park Memorial Institute (RPMI) 1640 medium. All cells were cultured as adherent mono-layers in flasks supplemented with 10% fetal bovine serum, L–glutamine (2 mM), penicillin (100 unit/mL), and streptomycin (100 μg/mL), in a humidified 37°C incubator supplied with 5% CO2. Briefly, cells were harvested with trypsin and dispensed into 96-well microtiter assay plates at 3,000 cells/well, after which they were incubated for 18 h at 37°C with 5% CO2 (to allow cells to attach as adherent mono-layers). Test compounds were dissolved in 20% DMSO in PBS (v/v) and aliquots (10 μL) applied to cells over a series of final concentrations ranging from 10 nM to 30 μM. After 48 h incubation at 37°C with 5% CO2 an aliquot (20 μL) of 3-(4,5-dimethylthiazol-2-yl)-2,5-diphenyltetrazolium bromide (MTT) in phosphate buffered saline (PBS, 5 mg/mL) was added to each well (final concentration 0.5 mg/mL), and microtiter plates were incubated for a further 4 h at 37°C with 5% CO2. After final incubation, the medium was aspirated and precipitated formazan crystals dissolved in DMSO (100 μL/well). The absorbance of each well was measured at 580 nm with a PowerWave XS Microplate Reader from Bio-Tek Instruments Inc. Where relevant, IC50 values were calculated using Prism 7.0, as the concentration of analyte required for 50% inhibition of cancer cell growth (compared to negative controls). Negative control was 1% aqueous DMSO, while positive control was doxorubicin (30 μM). All experiments were performed in duplicate.

SW620 = experiment: cells; set-up: MTT assay of cancer cell growth inhibition, absorbance at 580 nm; conditions: Homo sapiens, SW-620, 48 h
Experimental: as §1

[1] = tested on: Bacillus subtilis ATCC 6633; format: cell-based; conditions: ATCC 6633, 24 h

IC50 (NCI-H460; read-out: 5): > 30 µM | IC50 (SW620; read-out: 5): > 30 µM
SMILES: CC[C@H](C)[C@@H](C(=O)N[C@@H](CC(C)C)C(=O)O)N(C)C(=O)[C@H](Cc1ccccc1)N(C)C(=O)[C@H](C(C)C)N(C)C(=O)[C@H](C(C)C)N(C)C(=O)[C@@H]1CCCN1C(=O)[C@H](C(C)C)N(C)C(=O)[C@@H](NC(=O)[C@@H](NC(=O)[C@@H](NC(=O)[C@H](C(C)C)N(C)C(=O)[C@H](C)N(C)C(C)=O)C(C)C)[C@@H](C)O)C(C)C [compound 5, talaropeptide D] (Ac-[NMeA][NMeV]VTV[NMeV]P[NMeV][NMeV][NMeF][NMeI]L-OH)

IC50 [1]: 3.7 µM | IC50 (NCI-H460; read-out: 3): > 30 µM | IC50 (SW620; read-out: 3): > 30 µM
SMILES: CC[C@H](C)[C@@H](C(=O)N[C@@H](CC(C)C)C(=O)O)N(C)C(=O)[C@H](Cc1ccccc1)N(C)C(=O)[C@H](C(C)C)N(C)C(=O)[C@H](C(C)C)N(C)C(=O)[C@@H]1CCCN1C(=O)[C@H](C(C)C)N(C)C(=O)[C@@H](NC(=O)[C@@H](NC(=O)[C@@H](NC(=O)[C@H](C(C)C)N(C)C(=O)[C@H](C)NC)C(C)C)[C@@H](C)O)C(C)C [compound 3, talaropeptide B] (H-[NMeA][NMeV]VTV[NMeV]P[NMeV][NMeV][NMeF][NMeI]L-OH)

SMILES: CC[C@H](C)[C@@H](C(=O)N[C@@H](CC(C)C)C(=O)O)N(C)C(=O)[C@H](Cc1ccccc1)N(C)C(=O)[C@H](C(C)C)N(C)C(=O)[C@H](C(C)C)N(C)C(=O)[C@@H]1CCCN1C(=O)[C@H](C(C)C)N(C)C(=O)[C@@H](NC(=O)[C@@H](NC(=O)[C@H](C(C)C)N(C)C(=O)[C@H](C)NC)C(C)C)[C@@H](C)O [compound 2, talaropeptide A] (H-[NMeA][NMeV]VT[NMeV]P[NMeV][NMeV][NMeF][NMeI]L-OH)
IC50 [1]: 1.5 µM | IC50 (NCI-H460; read-out: 2): > 30 µM | IC50 (SW620; read-out: 2): > 30 µM

SMILES: CC[C@H](C)[C@@H](C(=O)N[C@@H](CC(C)C)C(=O)O)N(C)C(=O)[C@H](Cc1ccccc1)N(C)C(=O)[C@H](C(C)C)N(C)C(=O)[C@H](C(C)C)N(C)C(=O)[C@@H]1CCCN1C(=O)[C@H](C(C)C)N(C)C(=O)[C@@H](NC(=O)[C@@H](NC(=O)[C@H](C(C)C)N(C)C(=O)[C@H](C)N(C)C(C)=O)C(C)C)[C@@H](C)O [compound 4, talaropeptide C] (Ac-[NMeA][NMeV]VT[NMeV]P[NMeV][NMeV][NMeF][NMeI]L-OH)
IC50 (NCI-H460; read-out: 4): > 30 µM | IC50 (SW620; read-out: 4): > 30 µM
